Test results taken from paper PMC10526274, “Epithelial-Immune Cell Crosstalk Determines the Activation of Immune Cells In Vitro by the Human Cathelicidin LL-37 at Low Physiological Concentrations” (Biomolecules, 2023).
“And” between values parts separate entries of the source, which are not always exact repeats. Equal entries are not always repeated.

Test system: monocyte-derived dendritic cells (moDCs)
Experiment: Multiplex xMAP cytokine levels, moDCs alone stimulated with LL-37
Format: cell-based, human
Details: 1 µM LL-37, 24 h
Procedure: Peripheral blood mononuclear cells (PBMCs) from a healthy donor were purchased from the American Type Culture Collection (ATCC PCS-800-011). Blood monocytes were isolated from PBMCs by plastic adhesion. Mature monocyte-derived dendritic cells (moDCs) were generated in vitro from peripheral blood monocytes, according to Nair et al.. Briefly, monocytes were cultured in a humidified CO2-incubator (5% CO2, 37 °C) in the complete RPMI-1640 medium (Gibco) with 10% FBS, antibiotics, and supplemented with a cytokine cocktail containing 500 U/mL rhIL-4 and 800 U/mL rhGM-CSF (both Sci-Store, Moscow, Russia). On the third day, the medium was replaced by the same fresh medium with FBS, antibiotics, and the cytokine cocktail. Induction of maturation of the immature monocyte-derived dendritic cells was performed on the 5th day by replacing the medium with the complete RPMI-1640 medium (Gibco) with 10% FBS and antibiotics, supplemented with a cytokine cocktail containing 500 U/mL rhIL-4, 800 U/mL rhGM-CSF (both Sci-Store, Moscow, Russia), and 100 U/mL rhTNF-α (Sigma-Aldrich), and subjected to subsequent incubation of the culture for 4 more days.
Primary blood monocytes, moDCs, and NKT cells were seeded in 600 µL of complete RPMI-1640 with 10% Human AB serum (Capricorn Scientific, Ebsdorfergrund, Germany) and supplemented with 1X antibiotic–antimycotic solution into the wells of 24-well plates at a density of 3–7 × 10^5 cells/well 24 h before the experiment. Then, 24 h later, the medium in each well was replaced by the same medium with 1 µM of LL-37 for the sample wells or fresh medium alone for the control wells, and the permeable inserts with the Caco-2 monolayer with TEER > 400 Ω × cm^2, containing 400 μL of the complete medium in their apical chamber, were immediately placed into the appropriate wells. Also, inserts with the Caco-2 monolayer were placed in cell-free wells of 24-well plates in the same complete RPMI-1640 medium with or without 1 µM of LL-37 as controls. Cells were kept in a CO2-incubator (5% CO2, 37 °C) for another 24 h. Then, culture medium from each well was collected, centrifuged, and frozen at −70 °C.
To quantitatively evaluate a broad spectrum of analytes secreted by human cell cultures at the protein level, multiplex xMAP technology was used. The chosen panel (cat. #HCYTA-60K-PX48, Merck, Darmstadt, Germany) included 48 different magnetic beads with primary antibodies to the following cytokines, chemokines, and growth factors: CCL11 (Eotaxin-1), Flt-3 ligand, CX3CL1 (Fractalkine), sCD40L, FGF-2, EGF, GROα, GM-CSF, G-CSF, IL-1RA, IL-1α, IL-1β, IL-2, IL-3, IL-4, IL-5, IL-6, IL-7, CXCL8 (IL-8), IL-9, IL-10, IL-12p40, IL-12p70, IL-13, IL-15, IL-17A (CTLA8), IL-17E (IL-25), IL-17F, IL-18, IL-22, IL-27, IFNγ, IFNα2, CXCL10 (IP-10), CCL2 (MCP-1), CCL7 (MCP-3), CCL22 (MDC), CXCL9 (MIG), CCL3 (MIP-1α), CCL4 (MIP-1β), CCL5 (RANTES), M-CSF, PDGF-AA, PDGF-AB/BB, TNFα, TNFβ, TGFα, and VEGF-A. The assay was performed in accordance with the manufacturer’s instructions with overnight incubation of the samples with primary antibodies, and the plate was read on a MAGPIX System (Merck) using the xPONENT 4.2 software (Merck). The acquired fluorescence data were analyzed by the MILLIPLEX Analyst v5.1 software (Merck), which realized an advanced curve-fitting algorithm. Levels of the analytes in control and experimental samples were compared with an unpaired two-sample t-test using GraphPad Prism v.8.0.1 (GraphPad Software, Inc., San Diego, CA, USA). The p-values ≤ 0.05 were considered significant.

LL-37: the only human cathelicidin, host defense antimicrobial peptide of 37 a.a. residues, produced by solid-phase peptide synthesis
FLT-3L level (n=2, control 0.57): 0.51 pg/mL | IL-2 level (n=2, control 0.91): 0.91 pg/mL | IL-4 level (n=2, control 1.14): 1.31 pg/mL | TNFb level (n=2, control 1.49): 1.3 pg/mL | IL-3 level (n=2, control 1.55): 0.91 pg/mL | IL-18 level (n=2, control 1.61): 0.63 pg/mL | VEGFa level (n=2, control 2.82): 4.61 pg/mL | IL-15 level (n=2, control 4.12): 4.36 pg/mL | IL-5 level (n=2, control 4.63): 3.23 pg/mL | IFNg level (n=2, control 5.89): 5.02 pg/mL | EGF level (n=2, control 7.65): 6.75 pg/mL | IL-9 level (n=2, control 8.22): 7.84 pg/mL | IL-1b level (n=2, control 9.37): 7 pg/mL | IFNa2 level (n=2, control 10.16): 11.65 pg/mL | IL-1RA level (n=2, control 11.72): 11.72 pg/mL | GM-CSF level (n=2, control 13.02): 10.06 pg/mL | IL-22 level (n=2, control 13.22): 11.11 pg/mL | G-CSF level (n=2, control 20.3): 13.54 pg/mL | PDGF-AA level (n=2, control 24.8): 25.69 pg/mL | TGF-a level (n=2, control 25.07): 20.52 pg/mL | IL-6 level (n=2, control 27.8): 30.65 pg/mL | Fractalkine level (n=2, control 28.72): 25.92 pg/mL | IL-13 level (n=2, control 36.28): 29.87 pg/mL | TNFa level (n=2, control 40.81): 40.03 pg/mL | FGF-2 level (n=2, control 48.6): 47.27 pg/mL | GROa level (n=2, control 51.39): 53.94 pg/mL | IL-27 level (n=2, control 55.75): 59.83 pg/mL | IL-12 (p40) level (n=2, control 61.22): 61.22 pg/mL | IP-10 level (n=2, control 66.42): 57.64 pg/mL | PDGF-AB/BB level (n=2, control 72.4): 70.07 pg/mL | IL-10 level (n=2, control 89.23, p = 0.0058): 62 pg/mL and 62.12 pg/mL | sCD40L level (n=2, control 98.84): 95.47 pg/mL | M-GSF level (n=2, control 200.96): 185.65 pg/mL | RANTES level (n=2, control 423.03): 417.4 pg/mL | MCP-3 level (n=2, control 573.83): 545.69 pg/mL | MIP-1b level (n=2, control 2042): 2065 pg/mL | MIP-1a level (n=2, control 2533): 2368 pg/mL | MCP-1 level (n=2, control 3176): 2573 pg/mL | IL-8 level (n=2, control 4102): 4051 pg/mL | MIG level (n=2, control 27057): 23618 pg/mL | IL-7 level (n=2, control <0.30): <0.30↓ pg/ml | IL-17A level (n=2, control <0.70): <0.70↓ pg/ml | IL-1a level (n=2, control <1.30): <1.30↓ pg/ml | IL-12 (p70) level (n=2, control <1.71): <1.71↓ pg/ml | Eotaxin level (n=2, control <2.91): <2.91↓ pg/ml | IL-17F level (n=2, control <12.19): <12.19↓ pg/ml | IL-17E/IL-25 level (n=2, control <19.43): <19.43↓ pg/ml | MDC level (n=2, control >14590): >14590↑ pg/ml
